These results are taken from patent US20250129049A1, “1H-PYRAZOLE-3-AMINE DERIVATIVE HAVING BICYCLIC BACKBONE” (Sumitomo Pharma Co., Ltd., priority 2021, published 2025).

One series deals with hERG current (Homo sapiens (Human), UniProt Q12809). The experiment in a line: cell-based.
Series [1] can be described thus: Pharmacokinetic test, intravenous administration to mice. It is filed as in vivo. As to conditions: female, BALB/c, mouse, plasma, liposome formulations, 1.0 mg/kg i.v., trapezoidal method, 0 hours to last quantifiable time. As to the method:
Blood was collected over time up to 72 hours after administration from the jugular vein under no anesthesia.

For another series, the target named is CHK1 kinase (Homo sapiens (Human), UniProt O14757).
Chain of CHK1 kinase (O14757 whole entry): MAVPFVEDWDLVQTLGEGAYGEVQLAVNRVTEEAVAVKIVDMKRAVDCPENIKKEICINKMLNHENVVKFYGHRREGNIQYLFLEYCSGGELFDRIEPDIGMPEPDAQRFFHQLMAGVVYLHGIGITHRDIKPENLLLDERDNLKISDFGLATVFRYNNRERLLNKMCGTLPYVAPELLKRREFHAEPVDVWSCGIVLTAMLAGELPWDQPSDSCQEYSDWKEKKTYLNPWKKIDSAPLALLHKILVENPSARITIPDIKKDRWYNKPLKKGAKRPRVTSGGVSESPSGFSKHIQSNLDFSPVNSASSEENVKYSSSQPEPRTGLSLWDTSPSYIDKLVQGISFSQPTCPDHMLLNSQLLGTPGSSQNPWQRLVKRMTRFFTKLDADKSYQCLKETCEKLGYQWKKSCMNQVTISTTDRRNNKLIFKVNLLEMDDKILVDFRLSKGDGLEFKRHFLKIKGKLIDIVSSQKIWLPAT
The test system of the next series is ES-2 cells. The experiment in a line: Cell growth suppression experiment (ES-2). It is filed as cell-based. The conditions noted are these: Homo sapiens, 48 h, cultured 2 days, CellTiter-Glo 3D. As to the method: ES-2 cells were obtained from the American Type Culture Collection (ATCC). These cells were cultured at 37° C. in the presence of 5% CO2 in a McCoy's 5a medium containing 10% fetal bovine serum and 1% penicillin/streptomycin.
500 cells were seeded for each well in a 384-well plate, and the evaluated compound was added to the final DMSO concentration of 0.1% to culture the cells for 2 days. After completion of the culture, the cell viability rate was calculated using CellTiter-Glo (registered trademark) 3D Reagent (Promega, G968B).
On the technique in general: ATP-based viability assays read luminescence as a measure of living cells.

Series [2] is described as follows: Liposome encapsulation test. The class given is physicochemical. The conditions noted are these: concentration upon compound introduction 2 or 3 mg/mL. As to the method: 6.48 g of hydrogenated soybean phosphatidylcholine (COATSOME NC-21E, NOF Corporation), 2.32 g of cholesterol (Sigma) and 2.06 g of distearoylphosphatidylethanolamine-methoxypolyethylene glycol 2000 (SUNBRIGHT DSPE-020CN, NOF Corporation) were dissolved in 560 mL of t-butyl alcohol heated to 65° C. The solution was frozen with dry ice/acetone bath and t-butyl alcohol was then removed by evaporation under reduced pressure to obtain a lipid mixture.
200 mL of 250 mM ammonium sulfate solution was added to the lipid mixture. The resulting mixture was heated to 65° C. and dispersed with a homogenizer (ULTRA-TURRAX, IKA) to obtain a crude liposome dispersion. […] A dialysis cassette (Slide-A-Lyzer G2 Dialysis Cassettes 20K MWCO, Thermo Scientific) was used to replace the outer aqueous phase of the liposome with a 10 mM L-histidine buffer/10% sucrose solution (pH 6.5) to obtain an empty liposome solution. The solution was filtered through a 0.22 μm membrane filter, and a 10 mM L-histidine buffer/10% sucrose solution (pH 6.5) was added to adjust the total lipid concentration to be 75 mM (75 μmol/mL) or 50 mM (50 μmol/mL). The prepared amount was increased or decreased appropriately.
2 to 3 mg of the test compound was weighed out. 1 mL of the empty liposome solution with a total lipid concentration of 50 mM was added. An aqueous 1 mol/L hydrochloric acid or 1 mol/L sodium hydroxide solution was added to adjust the pH to 5.5 to 7. […] Insoluble substances, when present, were removed by centrifugation for 5 minutes at 15,000× g.
The liposome encapsulation ratio was calculated as follows.
100 μL of liposome solution was passed through an ultrafiltration filter (Amicon Ultra, 100K, 0.5 mL, Merck), and centrifuged at 4° C. at 15,000×g for 10 minutes. The concentration of the compound in the filtrate after ultrafiltration was measured by HPLC as the unencapsulated compound concentration.
The liposome solution was diluted with a trifluoroacetic acid/water/methanol mixture (0.1/25/75) and was left standing for 10 minutes or longer at 5° C. The solution was centrifuged for 5 minutes at 15,000× g to remove insoluble substances. The compound concentration in the supernatant was measured by HPLC as the compound concentration in the liposome solution.
The encapsulation ratio and the encapsulation efficiency were calculated by the following equations.
HPLC measurement conditions are the following.

Another series concerns the target hERG (Homo sapiens (Human), UniProt Q12809). As to the kind of experiment: in vitro. The conditions noted are these: CHO cells stably expressing hERG. On the technique in general: hERG is a cardiac potassium channel; its block is linked to QT prolongation.

Chain of hERG (Q12809 whole entry): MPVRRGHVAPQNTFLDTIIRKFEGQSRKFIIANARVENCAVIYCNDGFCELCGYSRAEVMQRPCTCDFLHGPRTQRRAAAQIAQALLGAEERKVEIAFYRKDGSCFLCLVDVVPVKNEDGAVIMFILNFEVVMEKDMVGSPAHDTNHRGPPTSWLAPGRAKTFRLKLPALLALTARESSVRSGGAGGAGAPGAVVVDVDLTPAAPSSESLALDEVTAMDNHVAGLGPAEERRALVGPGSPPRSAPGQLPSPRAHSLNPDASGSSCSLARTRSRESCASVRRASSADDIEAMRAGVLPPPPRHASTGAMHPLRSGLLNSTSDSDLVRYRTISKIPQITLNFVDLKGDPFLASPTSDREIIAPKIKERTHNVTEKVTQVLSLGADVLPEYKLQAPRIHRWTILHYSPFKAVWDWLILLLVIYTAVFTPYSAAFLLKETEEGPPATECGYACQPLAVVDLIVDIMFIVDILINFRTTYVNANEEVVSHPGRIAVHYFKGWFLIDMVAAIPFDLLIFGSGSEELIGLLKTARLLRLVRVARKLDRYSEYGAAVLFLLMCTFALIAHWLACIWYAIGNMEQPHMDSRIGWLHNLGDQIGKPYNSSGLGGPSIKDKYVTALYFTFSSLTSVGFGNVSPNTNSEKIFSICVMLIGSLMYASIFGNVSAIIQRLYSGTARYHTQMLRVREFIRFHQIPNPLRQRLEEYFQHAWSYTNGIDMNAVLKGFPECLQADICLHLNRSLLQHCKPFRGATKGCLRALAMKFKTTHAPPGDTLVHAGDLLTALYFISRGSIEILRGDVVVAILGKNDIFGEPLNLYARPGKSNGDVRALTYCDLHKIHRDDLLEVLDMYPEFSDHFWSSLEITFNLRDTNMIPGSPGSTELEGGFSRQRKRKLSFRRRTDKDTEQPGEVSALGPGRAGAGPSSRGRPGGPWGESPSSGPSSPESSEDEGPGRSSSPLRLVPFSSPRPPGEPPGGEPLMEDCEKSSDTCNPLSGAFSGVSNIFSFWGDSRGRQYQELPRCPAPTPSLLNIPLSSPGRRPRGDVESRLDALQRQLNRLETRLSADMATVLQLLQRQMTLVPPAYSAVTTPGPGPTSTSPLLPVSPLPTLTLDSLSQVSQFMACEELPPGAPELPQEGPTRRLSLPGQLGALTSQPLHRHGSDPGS
Chain of hERG current (Q12809 whole entry): as above
Description for CHK1 kinase: FAM-PKAtide (R7255, Molecular Devices) and FAM-Phospho-PKAtide (R7304, Molecular Devices) were admixed after dilution, and calibration standard systems for phosphorylation levels from 0 to 100% were prepared. 5 μL of a compound dissolved in a 0.4% DMSO solution was added to a 384 well plate. A compound study group to which 5 μL of each of CHK1, CHK1tide, and ATP was added, and a standard group to which 20 μL of standard was added were prepared, and subjected to a kinase reaction for 3 hours at 30° C. Subsequently, 60 μL of Binding Reagent (80V % Buffer A, 20% Buffer B, 1:600 Binding Reagent, 1:400 Tb-Donor) was added for a binding reaction for 2 hours at room temperature. SpectraMax Paradigm (Molecular Devices) was used to obtain fluorescence intensity of 520 nm or 490 nm as of 340 nm excitation.

Broadly, the IC50 is the concentration that gives 50% inhibition. A lower IC50 goes with greater potency. Usually AUC(0-t) stands for exposure summed from dosing to a finite time, without extrapolation to infinity. A lower AUC(0-t) goes with less exposure. Take `N#Cc1cnc(Nc2cc(-c3c(OCC4(CN)CC4)cnc4c3OCC4)[nH]n2)cn1` [Example 14, 5-{[5-(6-{[1-(aminomethyl)cyclopropyl]methoxy)-2,3-dihydrofuro[3,2-b]pyridin-7-yl)-1H-pyrazol-3-yl]amino}pyrazine-2-carbonitrile]: the IC50 against hERG current is more than 10000 nM; against CHK1 kinase, 0.27 nM; with ES-2 cells, 3.72 nM. Also, the AUC(0-t) in series [1] is 397 µg·h/mL. Also, the “Compound concentration in liposome solution” value in series [2] was 1940 µg/mL. Further, the Encapsulation ratio in series [2] stood at 99.9%. For the same molecule, the selectivity ratio on hERG was not below 800.
